Patent US7348401B2, “Peptides that inhibit complement activation” (priority 2003, dated 2008)
Where two headings read alike, the source gives them in different places.

Assays:
[1] = tested on: classical pathway; antibody sensitized sheep erythrocyte cells; experiment: Classical pathway hemolytic assay (RBC hemolysis assay); type: cell-based, human
Experimental: Inhibition of the classical pathway by the peptides was measured using a standard hemolysis assay, which monitors the lysis of sheep erythrocytes as a result of terminal complex formation (see e.g. FIG. 1, FIG. 10). Various concentrations of peptide were incubated with 50 μL pooled human plasma (diluted 1:30 with GVB^++), 5×10^7 antibody sensitized sheep erythrocyte cells, and GVB^++ buffer to a final volume of 200 μL. The reaction was incubated at 37° C. for one hour and centrifuged. The percentage of lysis was determined by measuring the optical density of the supernatant at 414 nm. 100% lysis was determined by the optical density at 414 nm of the supernatant from a control sample consisting of 5×10^7 antibody sensitized sheep erythrocyte cells in water. The percent inhibition was calculated as the (% lysisno peptide−% lysispeptide)/% lysisno peptide×100.

[2] = tested on: classical pathway; experiment: Classical pathway component assay (immune complex, ELISA for C5a, SC5b-9, C3a); type: biochemical, human; details: immune complex-classical pathway assay, compared with Peptide 7
Experimental: The inhibition of the classical pathway by the peptides was measured by incubating human plasma in the presence and absence of peptides with an immune complex generated on a surface and then monitoring for the production of complement components C5a, SC5b-9, and C3a. To generate the immune complex, a 10 mg/mL solution of BSA in PBS was incubated at 56° C. for 30 minutes and then used to coat the surface of a microplate by diluting to 50 μg/mL at pH 9.6 and incubating for one hour at 37° C. The plate was washed and then incubated with 18 μg/mL mouse anti-BSA IgG2a (Sigma) for one hour at 37° C. Pooled human plasma with and without various concentrations of peptide were incubated for 30 minutes at 37° C. with the generated immune complex and the reaction was stopped with the addition of EDTA. The plasma samples were then analyzed with commercially available ELISA's for the production of C5a (Pharmingen), SC5b-9 (Quidel), and C3a (Quidel).

Substance | inhibitory activity in RBC hemolysis assay compared with parent peptide [1] | other results
112: Peptide 46 with a tri-peptide substituted for X1, third amino acid glutamic acid (EAEVRWEFPL; complement inhibitor) [Peptide 112] | enhanced the levels of inhibitory activity | 
Peptide 83: Peptide 46 derivative with a glutamic acid at X1; listed in both the X2 and X1 series (AAEVRWEFPL; complement inhibitor) | highest level of inhibitory activity | 
Peptide 95: Peptide 46 derivative with proline at X1 (TAPVRWEEPL; complement inhibitor) | almost comparable activity | 
Peptide 90: Peptide 46 derivative with isoleucine at X1 (TAIVRWEFPL; complement inhibitor) | almost comparable activity | 
120: Peptide 46 with a tri-peptide substituted for X1, third amino acid glutamic acid (TLEVRWEFPL; complement inhibitor) [Peptide 120] | enhanced the levels of inhibitory activity | 
Peptide 84: Peptide 46 derivative with a glutamic acid at X1 (TAEVRWEFPL; complement inhibitor) | highest level of inhibitory activity | inhibitory activity in RBC hemolysis assay compared with parent peptide ([1]; listed as SEQ ID NO 84): enhanced the levels of inhibitory activity
Peptide 60: Peptide 50 with tryptophan replacing the phenylalanine at X4 (DNRWEWPL; complement inhibitor) | more severe losses | 
Peptide 50: eight-mer: Peptide 13 with two amino acids removed from both ends (DNRWEFPL; complement inhibitor) |  | original activity retained in RBC hemolysis assay ([1]; relative to Peptide 13): 100%
119: Peptide 46 with a tri-peptide substituted for X1, third amino acid glutamic acid (TTEVRWEFPL; complement inhibitor) [Peptide 119] | enhanced the levels of inhibitory activity | 
18: Peptide 7 with alanine substituted for a residue L on the amino-terminal side of the consensus sequence (SFNDALWRWEWP; complement inhibitor) [Peptide 18] |  | complement inhibiting activity (C5a and SC5b-9 production), alanine scan of Peptide 7 [2]: slightly greater inhibitory activity
Peptide 56: Peptide 50 with arginine at position 3 changed to histidine (DNHWEFPL; complement inhibitor) | lowers the inhibiting activity | 
20: Peptide 7 with alanine substituted for residue W on the amino-terminal side of the consensus sequence (SFNDLLARWEWP; complement inhibitor) [Peptide 20] |  | complement inhibiting activity (C5a and SC5b-9 production), alanine scan of Peptide 7 [2]: slightly greater inhibitory activity
Peptide 91: Peptide 46 derivative with leucine at X1 (TALVRWEFPL; complement inhibitor) | almost comparable activity | 
Peptide 55: Peptide 50 with arginine at position 3 changed to lysine (DNKWEFPL; complement inhibitor) | lowers the inhibiting activity | 
Peptide 54: Peptide 50 with asparagine substituted for the aspartic acid residue (NNRWEFPL; complement inhibitor) | little effect on the inhibitory activity | 
19: Peptide 7 with alanine substituted for a residue L on the amino-terminal side of the consensus sequence (SFNDLAWRWEWP; complement inhibitor) [Peptide 19] |  | complement inhibiting activity (C5a and SC5b-9 production), alanine scan of Peptide 7 [2]: slightly greater inhibitory activity
Peptide 64: Peptide 50 with leucine replacing the phenylalanine at X4 (DNRWELPL; complement inhibitor) | more severe losses | 
Peptide 61: Peptide 50 with tyrosine substituted for the phenylalanine at position 6 (DNRWEYPL; complement inhibitor) | minimal loss of activity | 
Peptide 53: Peptide 50 with glutamic acid substituted for the aspartic acid at position 1 (ENRWEFPL; complement inhibitor) | appeared to increase the inhibitory activity | 
115: Peptide 46 with a tri-peptide substituted for X1, third amino acid glutamic acid (LAEVRWEFPL; complement inhibitor) [Peptide 115] | enhanced the levels of inhibitory activity | 
Peptide 46: 10-mer: Peptide 13 with the two residues removed from the carboxyl terminus (TQDNRWEFPL; complement inhibitor) | appears to increase the activity | 
